Patent US9499509B2, “Dihydrochalcone derivatives and their use as antibiotic agents” (UNIVERSITÉ DU QUÉBEC À CHICOUTIMI, priority 2012, dated 2016)
Read-outs that look alike come from different tables or passages of the source.

Key:
[1] = tested on: S. aureus; assay: Antibiotic assay (resazurin, Example 1), S. aureus strains of Table 3; format: cell-based, Staphylococcus aureus; conditions: for IC50: read-out: IC50
Description: (§1) Bacteria Strain. […] The MRSA were obtained as further described below.
(§2) Antibiotic agents. Cyprofloxacin and erythromycin were provided by Sigma-Aldrich. Gentamicin sulfate and vancomycin hydrochloride were provided by Calbiochem.

[2] = tested on: Streptococcus pyogenes; assay: Antibiotic assay (resazurin, Example 1), Streptococcus pyogenes; format: cell-based; conditions: for IC50: read-out: IC50
Protocol: as §1, §2
(§3) Five additional strains were tested: Streptococcus pneumoniae, Streptococcus agalactiae, Streptococcus pyogenes, Enterococcus faecalis and Corynebacterium jeikeium.

[3] = tested on: WS-1 cell lines; assay: Cytotoxicity assay on WS-1 (Example 1)
Protocol: Cytotoxicity assay. The cytotoxicity assay was performed in 96-well plates (BD Falcon). The WS-1 cell lines were provided by ATCC. The WS-1 was cultured in DMEM+10% fetal calf serum. The cells were plated in a volume of 100 μL at a density of 5000 cells per well and incubated at 37° C.+5% CO2 for 24 h to promote cell adhesion.
The plates were incubated at 37° C.+5% CO2 for 48 h. The cells were then washed with 100 μL of HBSS and 150 μL of a 2% resazurin were added to the wells.
The therapeutic index is the ratio between the toxicity on normal cells, in this case fibroblast, and the toxicity on bacteria.

[4] = tested on: S. epidermidis; assay: Antibiotic assay (resazurin, Example 1), S. epidermidis strains
[5] = tested on: Streptococcus agalactiae; assay: Antibiotic assay (resazurin, Example 1), Streptococcus agalactiae; format: cell-based; conditions: for IC50: read-out: IC50
Protocol: as §1, §2, §3

[6] = tested on: S. aureus wild type strain (ATCC 25923); assay: Antibiotic assay (resazurin, Example 1), S. aureus wild type; format: cell-based, Staphylococcus aureus
Protocol: as §1, §2
(§4) MRSA. Ten (10) strains of MRSA obtained as described above were tested along with an S. aureus wild type (WT) strain (ATCC25923).

[7] = tested on: methicillin-resistant Staphylococcus aureus (MRSA) strains; assay: Antibiotic assay (resazurin, Example 1), MRSA strains; format: cell-based; conditions: for IC50: read-out: IC50
Description: as §1, §2
Isolation and identification of methicillin-resistant Staphylococcus aureus (MRSA) strains. From March 2007 to March 2008, 35 screening swabs from nares (n=31), throat (n=3), Groin pus (n=1) were obtained from patients hospitalized at Chicoutimi hospital. Identification of S. aureus was performed using the Slidex Staph-Kit (bioMerieux Vitek, Inc., Hazelwood, Mo.) according to the manufacturer's instructions. Quality control was performed with MRSA strain ATCC 43300 and S. aureus strain ATCC 25923. In addition, S. aureus profile was determined with API Staph test strip with bacterial suspension of saline McFarland of 0.5 (bioMerieux, Durham, N.C.) according to the manufacturer's protocol. API Staph strips were held for 24 h before the results were read. A latex agglutination (SLIDEX) test detecting methicilin resistance in Staphylococci based on the production of low-affinity PBP2a, which is encoded by the mecA gene was performed on all strains. An antibiogram was also performed to confirm the identification of MRSA strains using disk diffusion test.
Antibiotic susceptibility testing using disk diffusion method. The antimicrobial activity of different classes of antibiotics of the potential MRSA was determined by diffusion method (Kirby-Bauer) as described by NCCLS. The antibiotics tested included: penicillin (10 units), amoxicillin/clavulanic acid (20/10 μg), ciprofloxacin (5 μg), moxifloxacin (5 μg), levofloxacin (5 μg), clindamycin (15 μg), erythromycin (15 μg), cefoxitin (30 μg), linezolid (30 μg), trimethoprim/sulfomethoxazole (1.25/23.75 μg), rifampicin (5 μg), gentamicin (10 μg) and vancomycin (30 μg). The agar medium had pH 7.2 to 7.4 before inoculing potentiel MRSA. The antibiotics were maintained at 8° C. or lower −14° C. according to manufacturer's recommendations. The pure culture was inoculated on a non-selective plate for 18-24 h. Each colony was collected with a wire loop and transfered the growth to a tube containing 4 to 5 mL of a tryptic-soy broth. The inoculum density was standarized with BaSO4 using 0.5 McFarland standard. All strains were incubated at 37° C. until it achieves or exceeds the turbidity of 0.5 McFarland standard. Inoculation of the dried surface (Muller-Hinton agar plate) by streaking the swab over the entire sterile agar surface. This procedure was repeated two more times. After 15 min, the appropriate disk were applied on the surface with a sterile forceps. The inverted plates was placed in a incubator at 37° C./air/16 to 18 h or 24 h for vancomycin. The inhibition zones were measured with a millimetric ruler. Interpretation of zone sizes by references of the manufacturer. Quality control organisms used were ATCC strains number 25923.
as §4

[8] = tested on: Enterococcus faecalis; assay: Antibiotic assay (resazurin, Example 1), Enterococcus faecalis; format: cell-based; conditions: for IC50: read-out: IC50
Protocol: as §1, §2, §3

## COc1cc(O)c(C(=O)CCc2ccc(O)cc2)c(O)c1C/C=C/c1ccc(O)cc1 [Compound I]
[1]; S. aureus 14094
  Minimum Inhibitory Concentration (MIC): (6.54) μM
  IC50: 3500 ± 300 nM
[1]; S. aureus 14108
  Minimum Inhibitory Concentration (MIC): (8.73) μM
  IC50: 2700 ± 300 nM
[1]; S. aureus 14118
  Minimum Inhibitory Concentration (MIC): (5.27) μM
  IC50: 3500 ± 100 nM
[1]; S. aureus 14154
  Minimum Inhibitory Concentration (MIC): (4.37) μM
  IC50: 2300 ± 100 nM
[2]; Strep. pyogenes 14149
  Minimum Inhibitory Concentration (MIC): (200) μM
  IC50: 118000 nM
[2]; Strep. pyogenes 14152
  Minimum Inhibitory Concentration (MIC): (>200) μM
  IC50: 44000 ± 10000 nM
[2]; in words
  activity against Streptococcus pyogenes strain 14152: active
[3]
  WS-1 (toxicity on normal cells, fibroblast): 49 ± 9
[4]; S. epidermidis 14069
  IC50: 5300 ± 200 nM
  Minimum Inhibitory Concentration (MIC): (19.9) μM
[4]; S. epidermidis 14085
  IC50: 4500 ± 300 nM
  Minimum Inhibitory Concentration (MIC): (23.5) μM
[4]; S. epidermidis 14093
  IC50: 8600 ± 600 nM
  Minimum Inhibitory Concentration (MIC): (11.6) μM
[4]; S. epidermidis 14134
  IC50: 3700 ± 400 nM
  Minimum Inhibitory Concentration (MIC): (19) μM
[4]; S. epidermidis 14143
  IC50: 6700 ± 300 nM
  Minimum Inhibitory Concentration (MIC): (15.2) μM
[4]; in words
  activity on S. epidermidis compared with ciprofloxacin: more active than ciprofloxacin
[5]; Strep. agalactiae 14150
  Minimum Inhibitory Concentration (MIC): (200) μM
  IC50: 144000 ± 2000 nM
[5]; Strep. agalactiae 14151
  Minimum Inhibitory Concentration (MIC): (>200) μM
  IC50: 198000 ± 3000 nM
[5]; Strep. agalactiae 14153
  Minimum Inhibitory Concentration (MIC): (>200) μM
  IC50: 174000 ± 3000 nM
[5]; in words
  activity against Streptococcus agalactiae strain 14150: active
[6]; S. aureus WT (ATCC 25923)
  Minimum Inhibitory Concentration (MIC): (6.87) μM
[6]; S. aureus WT (ATCC 25923), read-out: IC50
  IC50: 2800 ± 900 nM
[6]; Table 5, same values as IC50 of Table 2, read-out: S. aureus WT ATCC 25923 (toxicity on bacteria)
  IC50: 2800 ± 900 nM
[7]; MRSA 1
  Minimum Inhibitory Concentration (MIC): (5.11) μM
  IC50: 2200 ± 200 nM
[7]; MRSA 2
  Minimum Inhibitory Concentration (MIC): (5.22) μM
  IC50: 2200 ± 200 nM
[7]; MRSA 3
  Minimum Inhibitory Concentration (MIC): (5.54) μM
  IC50: 2100 ± 200 nM
[7]; MRSA 4
  Minimum Inhibitory Concentration (MIC): (4.82) μM
  IC50: 2100 ± 200 nM
[7]; MRSA 5
  Minimum Inhibitory Concentration (MIC): (5.07) μM
  IC50: 1700 ± 200 nM
[7]; MRSA 6
  Minimum Inhibitory Concentration (MIC): (5.01) μM
  IC50: 2000 ± 200 nM
[7]; MRSA 7
  Minimum Inhibitory Concentration (MIC): (4.39) μM
  IC50: 2100 ± 200 nM
[7]; MRSA 8
  Minimum Inhibitory Concentration (MIC): (4.64) μM
  IC50: 2100 ± 200 nM
[7]; MRSA 9
  Minimum Inhibitory Concentration (MIC): (5.00) μM
  IC50: 2300 ± 200 nM
[7]; MRSA 10
  Minimum Inhibitory Concentration (MIC): (5.15) μM
  IC50: 2600 ± 200 nM
[8]; Ent. Faecalis 14078
  Minimum Inhibitory Concentration (MIC): (>200) μM
  IC50: > 200000 nM
[8]; Ent. Faecalis 14115
  Minimum Inhibitory Concentration (MIC): (>200) μM
  IC50: > 200000 nM
[8]; in words
  activity against Enterococcus faecalis: No activity
